{
  "source": "patent US20060293351A1",
  "about": "“Promotion of wound healing” (priority 1999, published 2006)",
  "key": {"[1]": {"system": "incision at tumor implantation site", "assay": "Wound healing in nude mice implanted with C6 rat glioma tumors", "type": "in vivo, CD1-nude mice", "protocol": "Tumors from C6 rat glioma cells were prepared and implanted in nude mice. Certain mice received Halofuginone, either orally or through i.p. (intra-peritoneal) administration. […] The experimental method was as follows. C6 rat glioma cells were cultured in DMEM supplemented with 5% FCS, 50 units/ml penicillin, 50 micrograms/ml streptomycin and 125 […]. Aggregation of cells into small spheroids of about 150 microns was initiated by replating cells from confluent cultures onto agar-coated bacteriological plates. After 4-5 days in culture, the suspension was transferred to a 250 ml spinner flask (Bellco, USA), and the medium was changed every other da for 30-40 days. All culture operations were performed at 37° C. and 5% CO2. Other conditions were as previously reported (Abramovitch et al., Br. J. Cancer, 77:440-447, 1998; Abramovitch et al., Cancer Res., 55:1956-62, 1995). For the implantation of the cells, male CD1-nude mice, two months old and 30 g body weight, were anesthetized. A single tumor, about 1 mm in diameter, was implanted in each mouse stubcutaneously in the lower back at the site of a 4 mm incision, using a Teflon tubing, as reposed previously (Abramovitch et al., Br. J. Cancer, 77:440-447, 1998). The incision was formed with fine surgical scissors and closed with an adhesive bandage. The mice were then divided into six groups. One group received Halofuginone by oral administration as previously described. Four groups received different concentrations of Halofuginone through i.p. injections every other day (0.1, 0.5, 2 and 4 micrograms of Halofuginone per injection). One group received sham injections (no Halofuginone). MRI microimaging of the implanted tumor was performed on a horizontal 4.7 T Bruker-Biospec spectrometer using an actively RF decoupled surface coil, 2 cm in diameter, and a bird-cage transmission coil, as reported previously (Abramovitch et al., Br. J. Cancer, 77:440-447, 1998; and Abramovitch et al., Magn. Reson. Med., 39:813-824, 1998). Mice were anesthetized and placed supine with the tumor located at the center of the surface coil. Gradient echo images were acquired with a slice thickness of 0.5 mm, TE of 10 ms, TR of 230 ms and 256×256 pixels matrix resulting in in-plane resolution of 110 microns. Growth of the capillary bed was reflected by reduction of the mean intensity at a region of interest of 1 mm surrounding the tumor (Abramovitch et al., Br. J. Cancer, 77:440-447, 1998; and Abramovitch et al., Magn. Reson. Med., 39:813-824, 1998). At the end of the experimental period, the mice were sacrificed, and sections were obtained and prepared as previously described above. […] Such a result is surprising since wounds located less than 1 mm from a tumor implantation site have been previously shown not to heal rapidly."}, "[2]": {"system": "T50 bladder carcinoma bearing mice", "assay": "Wound healing in mice implanted with T50 bladder carcinoma tumors", "type": "in vivo, C3H mice", "details": "diet containing 10 mg/kg or 5 mg/kg, 3 days prior to and 2 weeks after cell injection", "protocol": "Similar visual results were obtained with mice implanted with T50 bladder carcinoma tumors (FIG. 4). C3H mice were divided into two groups of 6 mice each. The experimental group received a diet containing either 10 mg/kg or 5 mg/kg of Halofuginone 3 days prior to the injection of T50 bladder carcinoma cells and during 2 weeks after. […] The right side received 0.4*10^5 cells, and the left side received 2*10^5 cells. The experiment ended at day 17. FIG. 4 is a photograph of representative bladder carcinoma bearing mice which were untreated (top) or treated (bottom) with Halofuginone. […] Halofuginone was clearly able to promote wound healing in mice implanted with bladder carcinoma tumors."}, "[3]": {"details": "orally or 4 micrograms per i.p. injection"}, "[4]": {"details": "particularly at the highest dose (4 micrograms per i.p. injection)"}},
  "data": [
    {"compound": "O=C(CC1NCCC[C@H]1O)Cn1cnc2cc(Br)c(Cl)cc2c1=O", "note": "(some centres unmarked) [Halofuginone]", "values": [
      {"measurement": "complete re-epitheliazation (mice per group)", "setting": "[1]; 4 micrograms per i.p. injection every other day", "value": "4 out of 5"},
      {"measurement": "complete re-epitheliazation (mice per group)", "setting": "[1]; administered orally", "value": "4 out of 5"},
      {"measurement": "re-epitheliazation (mice per group)", "setting": "[1]; all other groups (0.1, 0.5, 2 micrograms per i.p. injection; sham)", "value": "1 out of 5"},
      {"measurement": "scarring at the site of the wound", "setting": "[1]; [3]", "value": "no scarring"},
      {"measurement": "wound healing despite presence of tumor", "setting": "[1]; [3]", "value": "significantly improved wound healing"},
      {"measurement": "collagen content", "setting": "[1]; [4]", "value": "decreased"},
      {"measurement": "expression of the collagen α1(I) gene", "setting": "[1]; [4]", "value": "decreased"},
      {"measurement": "wound healing", "setting": "[2]", "value": "greater wound healing"}
    ]}
  ]
}
